Each structure is given as a SMILES string.

What is called Tmax is the time from dosing to the highest level.

Test in one data set: not given
Particulars: male, CD1, mouse, in vivo.
For the molecule `Cc1sc2c(c1C)C(c1ccc(Cl)cc1)=N[C@@H](CC(=O)NCC1CCN(CCN(C)C)CC1)c1nnc(C)n1-2` [Compound 601], the F was determined as 4%.

The molecule `Cc1sc2c(c1C)C(c1ccc(Cl)cc1)=N[C@@H](CC(=O)NCCCN1CCC(N3CCCCC3)CC1)c1nnc(C)n1-2` [Compound 602] had an F of 2%.

`Cc1sc2c(c1C)C(c1ccc(Cl)cc1)=N[C@@H](CC(=O)N1CCC(N3CCCCC3)CC1)c1nnc(C)n1-2` [Compound 603] showed an F of 20%.

On to `Cc1sc2c(c1C)C(c1ccc(Cl)cc1)=N[C@@H](CC(=O)NCCCN1CCCC1)c1nnc(C)n1-2` [Compound 604], for which the F came out at 7%.

`Cc1sc2c(c1C)C(c1ccc(Cl)cc1)=N[C@@H](CC(=O)N1CCn3c(nnc3C(F)(F)F)C1)c1nnc(C)n1-2` [Compound 605] displayed an F of 6%.

A further data set in a line: Pharmacokinetics in male CD1 mice, oral administration (whole blood). Particulars: oral 10 mg/kg, N=3, whole blood.
Experimental: Pharmacokinetic parameters were determined by administration of a candidate bromodomain inhibitor to male CD1 mice. Intravenous doses were delivered at 5 mg/kg, and oral doses at 10 mg/kg (N=3). […] The compound concentration in mouse blood was monitored over 24-hour time period to check the compound concentration in blood at 5 min, 30 min, 1 hour, 2 hours, 6 hours, 12 hours, and 24 hour via a series bleeding.
`Cc1sc2c(c1C)C(c1ccc(Cl)cc1)=N[C@@H](CC(=O)OC(C)(C)C)c1nnc(C)n1-2` [JQ1]: the time to peak (Tmax) stood at 15 min.

For the origin of these results see patent US11406645B2, “Acetamide thienotriazolodiazepines and uses thereof” (Dana-Farber Cancer Institute, Inc., priority 2015, dated 2022).
